Data from patent US11168095B2, “ASK1 inhibiting agents” (BIOGEN MA INC., priority 2017, dated 2021).
Read-outs that look alike come from different tables or passages of the source.

Tests used:
ASK1/MAP3K5 = ASK1/MAP3K5 (Homo sapiens (Human), UniProt Q99683); experiment: ASK1/MAP3K5 assay by Reaction Biology Corp.; format: biochemical
Protocol: ASK1/MAP3K5 was used as the protein kinase and 20 μM of myelin basic protein (MBP) and 10 μM ATP were used as the substrate.

[1] = biological target: ASK1 T838 auto phosphorylation in HEK-293T cells (Homo sapiens (Human), UniProt Q99683); experiment: ASK1 (AUTO PHOS T838) assay, MSD format; format: cell-based
Protocol: The plates were incubated at 37° C. overnight. Media on plates was changed to OPTI-MEM, serum free media and cells were transfected with 9 μg of ASK1-V5 tagged full length plasmid using Lipofectamine 2000 (Invitrogen) and the plates were incubated at 37° C. overnight. Cells were trypsinized, counted on Nexcellometer and plated into 96 well tissue culture plates with 100,000 cells/well and 200 μL media. Cells were incubated for 4 hr at 37° C. then ASK1 compounds were added using a HP 300e. Compounds were tested at 20 μM with 3 fold, 10 point dilution points then incubated for 1 hr at 37° C. A lysis buffer (Cell Signaling) was prepared with protease and phosphatase inhibitor and maintained at 4° C. until use. Media from cells was discarded and 120 μL of cold lysis buffer was added to the cells, the plate was shaken 4° C. for 1 hr. Lysate was mixed using Apricot liquid handler; aspirating up and down 16 times at high speed using 50 μL volume. […] Plates were then incubated on a plate shaker overnight at 4° C. Plates were washed 3× with MSD wash buffer and 50 μL of rabbit anti-pASK1 T838 antibody was added to the wells and incubated for 2 hr at room temperature on a plate shaker. Plates were then washed and 50 μL of goat anti-rabbit sulfa-tag (1:500 dilution) was added to wells, and incubated for 1 hr at room temperature on a plate shaker. […] Plates were immediately read on a MSD Instrument Reader where chemoluminecense signal was measured. Data was analyzed using Graph Pad or Genedata, the data was normalized and plotted, % activity versus log of compound concentration. The IC50 values were obtained from a 4 parameter fit.

[2] = HEK 293T cells transfected with ASK1-V5 full length plasmid, compounds 1 hr at 37° C., read-out: IC50
[3] = 20 μM myelin basic protein (MBP), 10 μM ATP

ASK1 T838 auto phosphorylation in HEK-293T cells, sequence (Q99683 whole entry): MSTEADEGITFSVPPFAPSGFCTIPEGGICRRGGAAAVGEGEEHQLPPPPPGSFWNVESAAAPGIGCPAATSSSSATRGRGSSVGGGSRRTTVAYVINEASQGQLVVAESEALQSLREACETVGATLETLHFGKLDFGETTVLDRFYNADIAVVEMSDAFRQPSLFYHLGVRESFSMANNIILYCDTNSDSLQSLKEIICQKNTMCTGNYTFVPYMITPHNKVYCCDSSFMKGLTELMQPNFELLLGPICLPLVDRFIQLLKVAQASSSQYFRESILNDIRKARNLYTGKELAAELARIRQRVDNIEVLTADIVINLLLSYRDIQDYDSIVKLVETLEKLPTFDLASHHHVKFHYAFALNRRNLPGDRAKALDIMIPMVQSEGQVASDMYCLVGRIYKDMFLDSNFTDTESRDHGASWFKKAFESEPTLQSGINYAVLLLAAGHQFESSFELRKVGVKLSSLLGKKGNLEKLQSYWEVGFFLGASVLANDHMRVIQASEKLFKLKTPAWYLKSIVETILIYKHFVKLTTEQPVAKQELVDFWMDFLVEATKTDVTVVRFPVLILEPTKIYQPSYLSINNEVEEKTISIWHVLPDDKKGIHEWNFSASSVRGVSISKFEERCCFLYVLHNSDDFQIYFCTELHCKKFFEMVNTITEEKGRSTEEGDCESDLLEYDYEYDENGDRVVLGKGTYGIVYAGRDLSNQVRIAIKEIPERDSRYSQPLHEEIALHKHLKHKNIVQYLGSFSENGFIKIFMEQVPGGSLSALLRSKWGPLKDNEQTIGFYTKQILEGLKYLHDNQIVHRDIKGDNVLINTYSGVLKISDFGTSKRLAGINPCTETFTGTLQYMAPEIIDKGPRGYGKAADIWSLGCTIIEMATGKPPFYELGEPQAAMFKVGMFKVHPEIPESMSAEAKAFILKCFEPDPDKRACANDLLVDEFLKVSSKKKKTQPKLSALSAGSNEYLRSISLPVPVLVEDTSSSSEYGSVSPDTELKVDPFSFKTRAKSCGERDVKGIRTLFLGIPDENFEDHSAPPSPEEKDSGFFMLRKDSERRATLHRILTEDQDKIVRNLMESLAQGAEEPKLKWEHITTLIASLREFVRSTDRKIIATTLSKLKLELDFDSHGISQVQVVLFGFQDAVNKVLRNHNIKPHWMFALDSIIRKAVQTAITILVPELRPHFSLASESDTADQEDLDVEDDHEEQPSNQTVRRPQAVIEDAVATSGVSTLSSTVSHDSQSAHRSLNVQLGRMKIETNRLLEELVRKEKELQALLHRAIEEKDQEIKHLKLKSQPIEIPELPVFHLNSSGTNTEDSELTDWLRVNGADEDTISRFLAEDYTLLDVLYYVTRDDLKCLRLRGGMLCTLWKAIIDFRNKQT
ASK1/MAP3K5, sequence (Q99683 whole entry): as above

SMILES	IC50 (ASK1/MAP3K5)	IC50 [1, 2]	IC50 (ASK1/MAP3K5; [3])	IC50 [1]
C[C@H]1CCCOc2cc(F)c(OCCN(C)C)cc2C(=O)Nc2cccc(n2)-c2nncn21 [Example 116, (S)-5^5-(2-(Dimethylamino)ethoxy)-5^4-fluoro-10-methyl-1^4H-6-oxa-3-aza-2(2,6)-pyridina-1(3,4)-triazola-5(1,2)-benzenacyclodecaphan-4-one]	< 0.1 µM	< 1 µM		
C[C@H]1CCCOc2cc(F)c(-c3ccncc3)cc2C(=O)Nc2cccc(n2)-c2nncn21 [Example 112, (S)-5^4-Fluoro-10-methyl-5^5-(pyridin-4-yl)-1^4H-6-oxa-3-aza-2(2,6)-pyridina-1(3,4)-triazola-5(1,2)-benzenacyclodecaphan-4-one]		< 1 µM	< 0.1 µM	
CN(C)Cc1ccc2c(c1)C(=O)Nc1cccc(n1)-c1nncn1CCCCO2 [Example 48, 5^5-((Dimethylamino)methyl)-1^4H-6-oxa-3-aza-2(2,6)-pyridina-1(3,4)-triazola-5(1,2)-benzenacyclodecaphan-4-one]		< 1 µM	< 0.1 µM	
NCc1ccc2c(c1)C(=O)Nc1cccc(n1)-c1nncn1CCCCO2 [Example 47, 5^5-(Aminomethyl)-1^4H-6-oxa-3-aza-2(2,6)-pyridina-1(3,4)-triazola-5(1,2)-benzenacyclodecaphan-4-one]		< 1 µM	< 0.1 µM	
CN(C)CCn1cc(-c2cc3c(cc2F)OCCCCn2cnnc2-c2cccc(n2)NC3=O)cn1 [Example 64, 5^5-(1-(2-(Dimethylamino)ethyl)-1H-pyrazol-4-yl)-5^4-fluoro-1^4H-6-oxa-3-aza-2(2,6)-pyridina-1(3,4)-triazola-5(1,2)-benzenacyclodecaphan-4-one]		< 1 µM	< 0.1 µM	
O=C1Nc2cccc(n2)-c2nncn2CCCCOc2ccc(-c3cnn(C4COC4)c3)cc21 [Example 38, 5^5-(1-(Oxetan-3-yl)-1H-pyrazol-4-yl)-1^4H-6-oxa-3-aza-2(2,6)-pyridina-1(3,4)-triazola-5(1,2)-benzenacyclodecaphan-4-one]		< 1 µM	< 0.1 µM	
O=C1Nc2cccc(n2)-c2nncn2CCCCOc2cc(F)c(C3CCOCC3)cc21 [Example 68, 5^4-Fluoro-5^5-(tetrahydro-2H-pyran-4-yl)-1^4H-6-oxa-3-aza-2(2,6)-pyridina-1(3,4)-triazola-5(1,2)-benzenacyclodecaphan-4-one]		< 1 µM	< 0.1 µM	
Cc1cn(-c2cc3c(cc2F)OCCC[C@H](C)n2cnnc2-c2cccc(n2)NC3=O)cn1 [Example 113, (S)-5^4−Fluoro-10-methyl-5^5-(4-methyl-1H-imidazol-1-yl)-1^4H-6-oxa-3-aza-2(2,6)-pyridina-1(3,4)-triazola-5(1,2)-benzenacyclodecaphan-4-one]	< 0.1 µM	< 1 µM		
Cc1cn(-c2cc3c(cc2F)OCCCCn2cnnc2-c2cccc(n2)NC3=O)cn1 [Example 66, 5^4-Fluoro-5^5-(4-methyl-1H-imidazol-1-yl)-1^4H-6-oxa-3-aza-2(2,6)-pyridina-1(3,4)-triazola-5(1,2)-benzenacyclodecaphan-4-one]		< 1 µM	< 0.1 µM	
O=C1Nc2cccc(n2)-c2nncn2CCCCOc2ccc(-n3ccnc3)cc21 [Example 41, 5^5-(1H-Imidazol-1-yl)-1^4H-6-oxa-3-aza-2(2,6)-pyridina-1(3,4)-triazola-5(1,2)-benzenacyclodecaphan-4-one]		< 1 µM	< 0.1 µM	
COCCNc1cc2c(cc1F)C(=O)Nc1cccc(n1)-c1nncn1CCCCO2 [Example 88, 5^5-Fluoro-5^4-((2-methoxyethyl)amino)-1^4H-6-oxa-3-aza-2(2,6)-pyridina-1(3,4)-triazola-5(1,2)-benzenacyclodecaphan-4-one]		< 1 µM	< 0.1 µM	
CN1CCn2ncc(-c3ccc4c(c3)C(=O)Nc3cccc(n3)-c3nncn3CCCCO4)c2C1 [Example 40, 5^5-(5-Methyl-4,5,6,7-tetrahydropyrazolo[1,5-a]pyrazin-3-yl)-1^4H-6-oxa-3-aza-2(2,6)-pyridina-1(3,4)-triazola-5(1,2)-benzenacyclodecaphan-4-one]		< 1 µM	< 0.1 µM	
CN1CC=C(c2cc3c(cc2F)C(=O)Nc2cccc(n2)-c2nncn2CCCCO3)CC1 [Example 85, 5^5-Fluoro-5^4-(1-methyl-1,2,3,6-tetrahydropyridin-4-yl)-1^4H-6-oxa-3-aza-2(2,6)-pyridina-1(3,4)-triazola-5(1,2)-benzenacyclodecaphan-4-one]		< 1 µM	< 0.1 µM	
CN(C)CCOc1cc2c(cc1F)OCCCCn1cnnc1-c1cccc(n1)NC2=O [Example 76, 5^5-(2-(Dimethylamino)ethoxy)-5^4-fluoro-1^4H-6-oxa-3-aza-2(2,6)-pyridina-1(3,4)-triazola-5(1,2)-benzenacyclodecaphan-4-one]	< 0.1 µM	< 1 µM		
Cc1cc(C)n(-c2ccc3c(c2)C(=O)Nc2cccc(n2)-c2nncn2CCCCO3)n1 [Example 46, 5^5-(3,5-Dimethyl-1H-pyrazol-1-yl)-1^4H-6-oxa-3-aza-2(2,6)-pyridina-1(3,4)-triazola-5(1,2)-benzenacyclodecaphan-4-one]		< 1 µM	< 0.1 µM	
C[C@H]1CCCOc2cc(F)c(N3CC4CC(C3)O4)cc2C(=O)Nc2cccc(n2)-c2nncn21 [Example 104, (10S)-5^5-(6-Oxa-3-azabicyclo[3.1.1]heptan-3-yl)-5^4-fluoro-10-methyl-1^4H-6-oxa-3-aza-2(2,6)-pyridina-1(3,4)-triazola-5(1,2)-benzenacyclodecaphan-4-one]		< 1 µM	< 0.1 µM	
O=C1Nc2cccc(n2)-c2nncn2C/C=C/CCOc2ccccc21 [Example 175, (Z)-1^4H-6-oxa-3-aza-2(2,6)-pyridina-1(3,4)-triazola-5(1,2)-benzenacycloundecaphan-9-en-4-one]		< 1 µM	< 0.1 µM	
O=C1Nc2cccc(n2)-c2nncn2CCCCOc2cc(F)c(-c3ccnc(F)c3)cc21 [Example 55, 5^4-Fluoro-5^5-(2-fluoropyridin-4-yl)-1^4H-6-oxa-3-aza-2(2,6)-pyridina-1(3,4)-triazola-5(1,2)-benzenacyclodecaphan-4-one]		< 1 µM	< 0.1 µM	
CN1CCC(c2ccc3c(c2)OCCCCn2cnnc2-c2cccc(n2)NC3=O)CC1 [Example 79, 5^4-(1-Methylpiperidin-4-yl)-1^4H-6-oxa-3-aza-2(2,6)-pyridina-1(3,4)-triazola-5(1,2)-benzenacyclodecaphan-4-one]		< 1 µM	< 0.1 µM	
C[C@H]1CCOc2cc(F)c(C#CC3(C)COC3)cc2C(=O)Nc2cccc(n2)-c2nncn2C1 [Example 134, (S)-5^4-Fluoro-9-methyl-5^5-((3-methyloxetan-3-yl)ethynyl)-1^4H-6-oxa-3-aza-2(2,6)-pyridina-1(3,4)-triazola-5(1,2)-benzenacyclodecaphan-4-one]	< 0.1 µM			< 1 µM
C[C@@H]1CCCn2cnnc2-c2cccc(n2)NC(=O)c2cc(-c3cnn(CCN(C)C)c3)ccc2O1 [Example 147, (R)-5^5-(1-(2-(Dimethylamino)ethyl)-1H-pyrazol-4-yl)-7-methyl-1^4H-6-oxa-3-aza-2(2,6)-pyridina-1(3,4)-triazola-5(1,2)-benzenacyclodecaphan-4-one]		< 1 µM	< 0.1 µM	
C[C@@H]1CCCOc2ccc(F)cc2C(=O)Nc2cccc(n2)-c2nncn21 [Example 100, (R)-5^5-Fluoro-10-methyl-1^4H-6-oxa-3-aza-2(2,6)-pyridina-1(3,4)-triazola-5(1,2)-benzenacyclodecaphan-4-one]		1 to 10 µM	0.1 to 1 µM	
COC(C)(C)c1ccc2c(c1)C(=O)Nc1cccc(n1)-c1nncn1CCCCO2 [Example 50, 5^5-(2-Methoxypropan-2-yl)-1^4H-6-oxa-3-aza-2(2,6)-pyridina-1(3,4)-triazola-5(1,2)-benzenacyclodecaphan-4-one]		< 1 µM	< 0.1 µM	
O=C1Nc2cccc(n2)-c2nncn2C/C=C\CCOc2cc(F)c(N3CCOCC3)cc21 [Example 181, (Z)-5^4-Fluoro-5^5-morpholino-1^4H-6-oxa-3-aza-2(2,6)-pyridina-1(3,4)-triazola-5(1,2)-benzenacycloundecaphan-9-en-4-one]		< 1 µM	< 0.1 µM	
C[C@H]1CCCOc2cc(F)c(N3CCOCC3)cc2C(=O)Nc2cccc(n2)-c2nncn21 [Example 103, (S)-5^4-Fluoro-10-methyl-5^5-morpholino-1^4H-6-oxa-3-aza-2(2,6)-pyridina-1(3,4)-triazola-5(1,2)-benzenacyclodecaphan-4-one]		< 1 µM	< 0.1 µM	
CN1CCN(c2ccc3c(c2)OCCCCn2cnnc2-c2cccc(n2)NC3=O)CC1 [Example 81, 5^4-(4-Methylpiperazin-1-yl)-1^4H-6-oxa-3-aza-2(2,6)-pyridina-1(3,4)-triazola-5(1,2)-benzenacyclodecaphan-4-one]		< 1 µM	< 0.1 µM	
